Key:
[1] = system: MDA-MB-468 breast cancer cells; test: Inhibitory activity of compounds on MDA-MB-468 breast cancer cells (CellTiter-Glo); assay type: cell-based; conditions: IC50 of PY-X (DXD) set to 1; values are ratios of measured IC50 to DXD
Description: (§1) On the day of the experiment, the cells were digested with 0.25% trypsin (Gibco, 25200-072), filtered through a 40 μm sieve, diluted with the corresponding medium to a cell density of 1×10^4 cells/mL, and inoculated into a 96-well white cell culture plate (Beyotime, FCP968), with 100 μL of cells added per well. The culture plate was placed in a 37° C. incubator (Thermo 311) containing 5% C02 and incubated for 24 hours. On the second day, the samples to be tested were prepared as a stock solution at a final concentration of 1M in DMSO (Sigma, D1650), then diluted with the corresponding medium to a final concentration of 200 nM, and subjected to four-fold serial dilutions, resulting in a total of 9 concentrations. 100 μL of the diluted sample was added to each well of the 96-well plate. The plate was placed in a 37° C. incubator containing 5% CO2 and incubated for 144 hours. The cell culture plate was then removed, and 100 μL of the cell viability assay reagent (CellTiter-Glo® Luminescent Cell Viability Assay, Promega, G7571) was added to each well. The reaction was carried out in the dark at room temperature for 5 minutes. Luminescence values were read using a microplate reader (TECAN SPARK), and data were processed using Graphpad Prism 7 software.
(§2) PY—Y is referenced in the document (WO2022170971A1); and PY-A is referenced in the document (WO2021148501A1).

[2] = system: N87 gastric cancer cells; test: Inhibitory activity of compounds on N87 gastric cancer cells (CellTiter-Glo, 144 h); assay type: cell-based; conditions: IC50 of PY-X (DXD) set to 1; values are ratios of measured IC50 to DXD; 144 h
Description: as §1, §2

[3] = system: Colo-205 (Colon) cells; test: Inhibition of Colo-205 cells by compounds; assay type: cell-based; conditions: PY-X (DXD) set to 1
Description: as §1

[4] = system: SW1990 (Pancreatic) cells; test: Inhibition of SW1990 cells by compounds; assay type: cell-based; conditions: PY-X (DXD) set to 1
Description: as §1

[5] = system: HT-29 (Colon) cells; test: Inhibition of HT-29 cells by compounds; assay type: cell-based; conditions: PY-X (DXD) set to 1
Description: as §1

[6] = system: H1650 (NSCLC) cells; test: Inhibition of H1650 cells by compounds; assay type: cell-based; conditions: PY-X (DXD) set to 1
Description: as §1

[7] = system: SW1573 (NSCLC) cells; test: Inhibition of SW1573 cells by compounds; assay type: cell-based; conditions: PY-X (DXD) set to 1
Description: as §1

[8] = system: A549 (NSCLC) cells; test: Inhibition of A549 cells by compounds; assay type: cell-based; conditions: PY-X (DXD) set to 1
Description: as §1

[9] = system: PANC-1 (Pancreatic) cells; test: Inhibition of PANC-1 cells by compounds; assay type: cell-based; conditions: PY-X (DXD) set to 1
Description: as §1

[10] = system: H1437 (NSCLC) cells; test: Inhibition of H1437 cells by compounds; assay type: cell-based; conditions: PY-X (DXD) set to 1
Description: as §1

[11] = system: H82 (SCLC) cells; test: Inhibition of H82 cells by compounds; assay type: cell-based; conditions: PY-X (DXD) set to 1
Description: as §1

[12] = Log D of small molecules (1-octanol / phosphate buffer pH 2.5 and pH 7.4, LC-MS/MS); assay type: physicochemical
Description: (1) Preparation of 100 mM phosphate buffer (PB) solution at pH 2.5 and pH 7.4 respectively: • a. Preparation of a solution of 100 mM H3PO4 in water: 14.7 M H3PO4 was diluted with water to a concentration of 100 mM H3PO4, and the pH was measured to be approximately 1.8. • b. Preparation of 100 mM NaH2PO4: 5.999 g of NaH2PO4 was dissolved in 500 mL of water and the pH was measured to be approximately 4.5. • c. Preparation of 100 mM Na2HPO4: 7.098 g of Na2HPO4 was dissolved in water to a volume of 500 mL and the pH was measured to be approximately 9.4. • d. Preparation of 100 mM PB (pH 2.5): 15 mL of 100 mM H3PO4 was added to a 50 mL tube, and then pH was adjusted to 2.5±0.05 with 100 mM NaH2PO4. • d. Preparation of 100 mM PB (pH 7.4): 15 mL of 100 mM Na2HPO4 was added to a 50 mL tube, and then pH was adjusted to 7.4±0.05 with 100 mM NaH2PO4.
(2) Saturation of PBs (pH 2.5 and pH 7.4) with 1-octanol: 10 mL of 1-octanol was added to 100 mL of 100 mM PBs (pH 2.5 and pH 7.4), and the mixture was shaken vigorously, and then allowed to stand overnight at room temperature for later use.
(3) Saturation of 1-octanol with PBs (pH 2.5 and pH 7.4): 10 mL of 100 mM PBs (pH 2.5 and pH 7.4) was added to 100 mL of 1-octanol, and the mixture was shaken vigorously, and then allowed to stand overnight at room temperature for later use.
2.1) 2 μL of 10 mM DMSO stock solution of the test compound were dispensed into test tubes, in duplicate.
2.2) 149 μL of PB saturated with 1-octanol (pH 2.5 and 7.4) were added to the tubes.
2.3) 149 μL of PB (pH 2.5 and 7.4) saturated with 1-octanol were added to the corresponding tubes.
2.4) Each tube was vigorously mixed for 2 minutes, then shaken at 800 rpm for 1 hour at room temperature.
2.5) The tubes were centrifuged at 4000 rpm for 5 minutes at room temperature.
2.6) Appropriate volumes of the buffer phase and 1-octanol phase samples were aliquoted.
2.7) These samples were diluted and analyzed using LC-MS/MS without running a calibration curve.
2.8) Data analysis: The log D value of each compound was calculated using the following formula: f

Molecule	IC50 on 468 cells, ratio to DXD [1]	IC50 on N87 cells, ratio to DXD [2]	IC50 in Colo-205 cells, ratio to DXD [3]	IC50 in SW1990 cells, ratio to DXD [4]	IC50 in HT-29 cells, ratio to DXD [5]	IC50 in H1650 cells, ratio to DXD [6]	IC50 in SW1573 cells, ratio to DXD [7]	IC50 in A549 cells, ratio to DXD [8]	IC50 in PANC-1 cells, ratio to DXD [9]	IC50 in H1437 cells, ratio to DXD [10]	IC50 in H82 cells, ratio to DXD [11]	Log D2.5 (Oct/buff) Result ([12]; 1-octanol / phosphate buffer pH 2.5)	Log D7.4 (Oct/buff) Result ([12]; 1-octanol / phosphate buffer pH 7.4)
CC[C@@]1(O)C(=O)OCc2c1cc1n(c2=O)Cc2c-1nc1cc(F)c(C)c3c1c2[C@@H](CC(=O)NCCO)CC3 [PY-25B, 2-((1R,9S)-9-9-ethyl-5-fluoro-9-hydroxy-4-methyl-10,13-dioxo-2,3,9,10,13,15-hexahydro-1H,12H-benzo[de]pyrano[3′,4′:6,7]indolizino[1,2-b]quinolin-1-yl)-N-(2-hydroxyethyl)acetamide]	1.3101	2.9428	–	–	–	–	–	–	–	–	–	–	–
CC[C@@]1(O)C(=O)OCc2c1cc1n(c2=O)Cc2c-1nc1cc(F)c(COC(=O)NCCO)c3c1c2CCC3 [PY-27(10Car), (S)-(9-ethyl-5-fluoro-9-hydroxy-10,13-dioxy-2,3,9,10,13,15-hexahydro-1H,12H-benzo[d]pyrano[3′,4′:6,7]indolizino[1,2-b]quinolin-4-yl)methyl(2-hydroxyethyl)carbamate]	3.7610	3.3500	–	–	–	–	–	–	–	–	–	–	–
CC[C@@]1(O)C(=O)OCc2c1cc1n(c2=O)Cc2c-1nc1cc(Cl)c(CN)c3c1c2CCC3 [PY-36, (S)-4-(aminomethyl) 5-chloro-9-ethyl-9-hydroxy-1,2,3,9,12,15-hexahydro-10 h,13 h-benzo[de]pyrano[3′,4′:6,7]indolizino[1,2-b]quinolin-10,13-dione]	–	–	0.9857	1.3305	0.4909	0.8758	0.7619	0.4500	0.6317	1.1187	1.5585	–	–
CC[C@@]1(O)C(=O)OCc2c1cc1n(c2=O)Cc2c-1nc1cc(Cl)c(CO)c3c1c2CCC3 [PY-37, (S)-5-chloro-9-ethyl-9-hydroxy-4-(hydroxymethyl)-1,2,3,9,12,15-hexahydro-10 h,13 h-benzo[de]pyrano[3′,4′:6,7]indolizino[1,2-b]quinolin-10,13-dione]	–	–	0.6449	0.7777	0.4700	0.7310	0.6712	0.4179	0.3514	0.9440	1.1563	–	–
CC[C@@]1(O)C(=O)OCc2c1cc1n(c2=O)Cc2c-1nc1ccc(CO)c3c1c2CCC3 [PY-37A, (S)-9-ethyl-9-hydroxy-4-(hydroxymethyl)-1,2,3,9,12,15-hexahydro-10 h,13 h-benzo[de]pyrano[3′,4′:6,7]indolizino[1,2-b]quinolin-10,13-dione]	–	–	0.2763	0.2986	0.2181	0.2611	0.2884	0.2044	0.1992	0.2619	0.4153	–	–
CC[C@@]1(O)C(=O)OCc2c1cc1n(c2=O)Cc2c-1nc1cc(F)c(C)c3c1c2[C@@H](NC(=O)CO)CC3 [PY-X (DXD), exatecan DXD, reference compound]	1.0000	1.0000	–	–	–	–	–	–	–	–	–	1.68	1.67
(S)-9-ethyl-5-fluoro-9-hydroxy-1,2,3,9,12,15-hexahydro-10H,13H-benzo[de]pyrano[3′,4′: 6,7]indolizino[1,2-b]quinolin-10,13-dione [PY-10B]	0.4362	0.1623	–	–	–	–	–	–	–	–	–	–	–

— patent US20260199500A1, “Camptothecin Derivative, Conjugate Thereof, Preparation Method Therefor and Medical Use Thereof” (priority 2023, published 2026)
